Patent US20130266964A1, “METHOD OF DETECTING ENDOTHELIAL PROGENITOR CELLS” (PURDUE RESEARCH FOUNDATION, priority 2006, published 2013)

Assays:
[1] = target: T1, cell surface folate receptors on folate receptor positive M109 cells (Mus musculus, UniProt P35846); test: fluorescence measurement of binding to cell surface folate receptors on M109 cells in culture; assay type: cell-based
T1 construct: cell surface folate receptors on folate receptor positive M109 cells in culture; endogenous in cells; host or cells: M109 cells
T1 sequence (P35846 25-232): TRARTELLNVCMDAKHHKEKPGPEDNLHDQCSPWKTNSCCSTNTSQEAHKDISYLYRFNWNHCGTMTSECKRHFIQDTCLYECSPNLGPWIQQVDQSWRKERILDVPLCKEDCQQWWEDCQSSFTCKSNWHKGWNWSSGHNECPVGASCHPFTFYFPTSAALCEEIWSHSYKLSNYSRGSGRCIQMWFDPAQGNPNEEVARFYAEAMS
Procedure: AlexaFluor 488 C5-maleimide (Molecular Probes, Eugene, Oreg.) was dissolved in dimethyl sulfoxide (DMSO) (0.5 mg in 50 μl DMSO). A 1.5 molar equivalent (0.57 mg) of Folate-Cys was added to the solution and mixed for 4 hours at room temperature. Folate-Cys-AlexaFluor 488 (Folate-AlexaFluor) was purified by reverse-phase HPLC on a C18 column at a flow rate of 1 ml/min. The mobile phase, consisting of 10 mM NH4HCO3 buffer, pH 7.0 (eluent A) and acetonitrile (eluent B), was maintained at a 99:1 A:B ratio for the first minute and then changed to 1:99 A:B in a linear gradient over the next 29 minutes. Folate-Cys-AlexaFluor 488 eluted at 20 minutes. The product was confirmed by mass spectroscopy and the biologic activity was confirmed by fluorescence measurement of its binding to cell surface folate receptors on folate receptor positive M109 cells in culture.
Texas Red C2-maleimide (Molecular Probes, Eugene, Oreg.) was dissolved in dimethyl sulfoxide (DMSO) (1 mg in 200 μl DMSO). A 1.4 molar equivalent (1 mg) of Folate-Cys was added to the solution and mixed for 4 hours at room temperature. […] The product was confirmed by mass spectroscopy and the biologic activity was confirmed by fluorescence measurement of its binding to cell surface folate receptors on folate receptor positive M109 cells in culture.

[2] = tested on: folate receptor on CD133+ Flk1+ endothelial progenitor cells; test: folate-FITC binding to endothelial progenitor cells quantified by flow cytometry; assay type: cell-based, BALB/c mice; conditions: 100 nM folate-FITC
Procedure: Female 6- to 8-week-old BALB/c mice were injected in the peritoneal cavity with either Complete Freund's Adjuvant (CFA; 50-100 μL), Pseudomonas aeruginosa (1×10^7 CFU (colony forming units)), or Yersinia enterocolitica (1×10^6 CFU). Cells were isolated from the peritoneal cavity by lavage with 8 mL of sterile phosphate-buffered saline (PBS) 2-4 days later. The cells were pelleted by centrifugation (400×g, 10 minutes at room temperature) and resuspended in folate-deficient RPMI-1640 media (FD-RPMI; Gibco) containing 10% heat-inactivated fetal bovine serum (FBS), penicillin (100 IU/mL) and streptomycin (100 μg/mL). Peritoneal extracted cells were seeded at densities of 1×10^6 cells/microcentrifuge tube for antibody and folate conjugate studies.
All binding experiments were conducted on ice or in a 4° C. cold room unless indicated otherwise. All antibody labeling was optimized by titration. Optimal labeling was most often achieved with a 1/1000-1/10,000 dilution of the manufacture's stock antibody solution. After cells were labeled with antibodies, the samples were washed twice with PBS to remove non-specific binding. The samples were then incubated with a 100 nM concentration of folate-FITC for 45 minutes. […] All samples were analyzed by flow cytometry using a Becton Dickinson FACS Calibur (BD, Franklin Lakes, N.J.).

Row | biologic activity: binding to cell surface folate receptors [1] | Compound | binding to CD133+ Flk1+ endothelial progenitor cells ([2]; 45 minutes, on ice or 4° C., absence of unlabeled folic acid) | binding to CD133+ Flk1+ endothelial progenitor cells with competition ([2]; pre-incubation with 100-fold excess of unlabeled folic acid (10 μM))
1 | confirmed | N=c1ccc2c(-c3ccc(C(=O)NCCCCCN4C(=O)CC(SCC(NC(=O)CCC(NC(=O)c5ccc(NCc6cnc7nc(N)[nH]c(=O)c7n6)cc5)C(=O)O)C(=O)O)C4=O)cc3C(=O)O)c3ccc(N)c(S(=O)(=O)O)c3oc-2c1S(=O)(=O)O (stereo not shown) [Folate-Cys-AlexaFluor 488] |  | 
2 | confirmed | Nc1nc2ncc(CNc3ccc(C(=O)NC(CCC(=O)NC(CSC4CC(=O)N(CCNS(=O)(=O)c5ccc(C6=c7cc8c9c(c7Oc7c6cc6c%10c7CCCN%10CCC6)CCC[N+]=9CCC8)c(S(=O)(=O)O)c5)C4=O)C(=O)O)C(=O)O)cc3)nc2c(=O)[nH]1 (stereo not shown) [Folate-Cys-Texas Red] |  | 
3 |  | Nc1nc2ncc(CNc3ccc(C(=O)NC(CCC(=O)NCCNC(=S)Nc4ccc(C(=O)O)c(-c5c6ccc(=O)cc-6oc6cc(O)ccc56)c4)C(=O)O)cc3)nc2c(=O)[nH]1 (stereo not shown) [folate-FITC] | bound | competed
